Laboratory results as given in patent US20240252695A9, “RADIOLABELED ETHER DENDRIMER CONJUGATES FOR PET IMAGING AND RADIOTHERAPY” (Ashvattha Therapeutics, Inc., priority 2020, published 2024).

Tested on: reactive microglia
Test: PET/CT imaging of neuroinflammation in 5×FAD transgenic mice vs wild type
Format: in vivo, mouse
Conditions: 3.75 months of age
From the text: To further evaluate the ability of ^18F-OP-801 to image neuroinflammation in neurogenerative diseases, the 5×FAD transgenic mouse model was used. 5×FAD transgenic mice (B6SJL-Tg (APPSwFlLon,PSEN1*M146L*L286V)6799Vas) expressed human APP and PSEN1 transgenes developing amyloid plaque within a few months after birth and previous studies with TSPO PET radiotracers have only been able to detect neuroinflammation around 6 months (˜26 weeks) of age with a high TPSO affinity radiotracer, ^18F-GE180. 5×FAD female mice and age matched controls were used at 3.75 months of age to evaluate ^18F-OP-801 compared to the TPSO radiotracer, ^18F-GE180. ^18F-OP-801 ([…]) was injected as an IV bolus into wild type (n=7) and 5×FAD females (n=12) at 3.75 months of age. ^18F-GE180 (150-250 μCi) was administered to the 5×FAD transgenic (n=5) and wild type (n=4) female mice at 3.75 months of age. Static 10-minute PET/CT images were acquired at 50-60 minutes post-injection.

**Q.** How did the “PET signal in 5×FAD mice compared to wild type mice” value (50-60 minutes post-injection) turn out when `CCN(CC)C(=O)[C@H]1CCCc2c1c1c(OC)cccc1n2CC[18F]` [^18F-GE180] was run?
**A.** minimal PET signal differences

**Q.** And the “TG-to-WT ratio, Cortex” value (5xFAD mice)?
**A.** 1.21

**Q.** And the “TG-to-WT ratio, Hippocampus” value (5xFAD mice)?
**A.** 1.24

**Q.** What about the “TG-to-WT ratio, Whole Brain” value (5xFAD mice) of the same compound?
**A.** 1.21
